According to patent US11591323B2, “Muscarinic agonists as non-steroidal and non-opioid analgesics and methods of use thereof” (Barry University, priority 2019, dated 2023):
Entries after “also recorded” stand apart in the source; their conditions may differ. Read-outs that look alike come from different tables or passages of the source.

Experiments:
[1] = molecular target: T1, M5 muscarinic receptor (Homo sapiens, UniProt P08912); assay: inhibition of forskolin-stimulated cAMP, M5 CHO cells (M5Gi); type: cell-based; parameters: host or cells: CHO cells, stably transfected; conditions: for Emax: CHO; for RAi: Table 8, relative to carbachol; for Δlog(τ/KA): Table 8, to carbachol; for effect on forskolin-stimulated production of cAMP: M5, non-preferential response, in words; for Gi over Gq+G15 bias: at M5 receptors
T1 sequence (P08912 1-532): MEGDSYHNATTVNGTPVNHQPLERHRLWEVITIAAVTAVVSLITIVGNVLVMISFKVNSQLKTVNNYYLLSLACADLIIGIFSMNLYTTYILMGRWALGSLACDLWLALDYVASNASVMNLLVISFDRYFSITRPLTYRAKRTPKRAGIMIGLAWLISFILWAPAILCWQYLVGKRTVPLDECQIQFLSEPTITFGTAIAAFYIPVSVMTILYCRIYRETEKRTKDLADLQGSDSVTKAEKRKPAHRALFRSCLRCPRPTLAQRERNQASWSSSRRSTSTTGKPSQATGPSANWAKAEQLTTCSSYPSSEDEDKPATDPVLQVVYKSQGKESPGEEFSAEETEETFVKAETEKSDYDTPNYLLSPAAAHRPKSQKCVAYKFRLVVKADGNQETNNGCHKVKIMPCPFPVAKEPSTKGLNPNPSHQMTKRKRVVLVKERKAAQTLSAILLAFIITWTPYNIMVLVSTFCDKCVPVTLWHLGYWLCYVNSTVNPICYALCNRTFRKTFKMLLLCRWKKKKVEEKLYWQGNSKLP
Procedure: Since activation of phospholipase C (PLC) via M2 and M4 receptors is weak, cells were transferred with G15 G-protein to facilitate coupling.
To determine level of cAMP, cells in suspension were pre-incubated for 1 h with 0.4 μM [^3H]adenine, washed, and incubated for 10 min in the presence of isobutylmethylxanthine and 10 μM forskolin. […] Incubation was ended by addition of 0.2 ml of 2.5 M HCl to the samples. Samples were applied to alumina columns (1.5 g of alumina per column), washed with 2 ml ammonium acetate (pH=7.0) and eluted from columns with 4 ml ammonium acetate and measured by liquid scintillation spectrometry. […] The incubation was stopped by addition of 0.5 ml of chloroform methanol HCl mixture (2:1:0.1). After separation of water and organic phases, 0.6 ml of water phase was applied to Dowex columns (1.5 g of Dowex per column), washed by 20 ml of 60 mM ammonium formate/5 mM sodium borate buffer and eluted from columns with 4 ml of 1M ammonium formate/0.1 formic acid buffer and measured by liquid scintillation spectrometry.
(§1) Measurements of the production of cAMP and inositol phosphates: Levels of second messengers cAMP and inositol phosphates were determined in radiochemical chromatography assays as described previously. To determine level of cAMP, cells in suspension were pre-incubated for 1 h with 0.4 μM [^3H]adenine, washed, and incubated for 10 min in the presence of isobutylmethylxanthine and 10 μM forskolin. […] Incubation was ended by addition of 0.2 ml of 2.5 M HCl to the samples. Samples were applied to alumina columns (1.5 g of alumina per column), washed with 2 ml ammonium acetate (pH=7.0) and eluted from columns with 4 ml ammonium acetate and measured by liquid scintillation spectrometry. […] For this purpose, new CHO cell lines stably expressing promiscuous G15 G-protein and M2 or M4 receptor were generated by transfection with pCMV/hygro vector and hygromycin selection. To determine the rate of formation of inositol phosphates IPX, suspended cells were pre-incubated with 0.1 μM [^3H]myo-inositol for 60 min, washed, and incubated with 10 mM LiCl for 15 min. […] The incubation was stopped by addition of 0.5 ml of chloroform methanol HCl mixture (2:1:0.1). After separation of water and organic phases, 0.6 ml of water phase was applied to Dowex columns (1.5 g of Dowex per column), washed by 20 ml of 60 mM ammonium formate/5 mM sodium borate buffer and eluted from columns with 4 ml of 1M ammonium formate/0.1 formic acid buffer and measured by liquid scintillation spectrometry.
For bi-phasic response, curves were inhibitory and stimulatory phase were fitted separately. Operational Model of Functional Agonism
[formula] where y is functional response at concentration of tested compound x, EMAX is maximal response of the system, KA is equilibrium dissociation constant and nH is slope factor. Eq. 5 was fitted to data from functional experiments. Eq. 5 was fitted to data by the two-step procedure described earlier. […] In the second step, Eq. 5 with EMAX fixed to the value determined in the first step was fitted to individual experimental data sets. Relative Intrinsic Activity
Muscarinic receptors are also able to stimulate non-preferential signalling pathways.

[2] = tested on: striatum (M4 rich); assay: forskolin-stimulated cAMP in dissipated rat striatum; type: cell-based; conditions: in words
Procedure: Effects of compounds 6A and 7A were then measured ex vivo in dissipated rat tissues (FIG. 5). Accumulation of IPX was measured in dissipated brain cortex (rich in M1 & M3), submaxillary gland (M1 & M3), and ventral tegmental area (M5). Native tissues express about 10-times less muscarinic receptors than CHO cell lines. Accumulation of cAMP was measured in cerebellum (M2) and striatum (M4).
Rat dissipated tissues: Suspension of dissipated tissues from rat brain cortex, cerebellum, striatum, ventral tegmental area (VTA) and submaxillary glands was prepared as described previously in supplementary methods. Adult 8-weeks old male Wistar rats were scarified by cervical dislocation in accordance with current legislative and guidelines under permission of Czech Ministry of Agriculture 16OZ23113/2017-17214. Tissues were dissected immediately. Submaxillary glands were minced by scissors. Tissues were dispersed by incubation for 15 min at 37° C. in KHB supplemented with trypsin and trituration every 5 min. Large undissipated parts were removed by cell mesh. Then dissipated tissues were centrifuged 3 min at 250×g, re-suspended in KHB and centrifuged again to remove trypsin. Suspension of dissipated tissues was used immediately in experiments. Two submaxillary glands or about 400 mg of brain tissue was used a 96-sample assay.
as §1
To exclude the possibility that the observed effects of compounds 6A and 7A are the result of overexpression in the heterologous system, functional response to the compounds was measured ex vivo in dissipated native rat tissues. […] Accumulation of IPX was measured in brain cortex, submaxillary gland, and ventral tegmental area (VTA) as brain cortex and submaxillary glands are rich in M1 and in M3 receptors, respectively, and VTA is the only region expressing significant amount of M5 receptors. Accumulation of cAMP was measured in M2-rich cerebellum and M4-rich striatum.

[3] = M5Gi (↓cAMP), Table 8, read-out: E′MAX
[4] = M5Gi (↓cAMP), Table 8, read-out: pEC50 (converted)
[5] = M5Gi (↓cAMP), Table 8, read-out: pKA (converted)

`O=C1CCCN1CC#CCN1CCCC1` [oxotremorine, reference compound] showed an EC50 [1] of 0.0708 µM, a Kd [1] of 0.1 µM and an Emax [1] of 22 ± 2%. The τ ([1]; M5Gi (↓cAMP), Table 8) was 0.31 ± 0.03, the RAi ([1]; M5Gi (↓cAMP)) was 6.44 ± 0.67 and the “Δlog(τ/KA)” value ([1]; M5Gi (↓cAMP)) was −0.79 ± 0.06.

`C[N+](C)(C)CCOC(N)=O` [carbachol, reference compound] was tested, and the “forskolin-stimulated cAMP level” value [2] was “transient decrease in forskolin-stimulated cAMP level at nanomolar concentrations followed by an increase at micromolar concentrations; also recorded: transient decrease in forskolin-stimulated cAMP level at sub-micromolar concentrations followed by an increase at micromolar concentrations”, the “effect on forskolin-stimulated production of cAMP” value (from here on “effect”) [1] was “inhibited forskolin-stimulated production of cAMP at nanomolar concentrations” and the “E′MAX” value ([1]; M5Gi (↓cAMP), Table 8) was 18 ± 1 % of inhibition. The τ ([1]; M5Gi (↓cAMP), Table 8) was 0.24 ± 0.03 and the “Δlog(τ/KA)” value ([1]; M5Gi (↓cAMP)) was 0.

`C1=CCN(Cc2cccs2)CC1.Cl` [Compound 6A, 1-[(thiophen-2-yl)methyl]-1,2,3,6-tetrahydropyridin-1-ium chloride] was tested, and the “Emax of inhibition of cAMP synthesis” value [2] was “comparable to inhibition by carbachol”, the “forskolin-stimulated cAMP level” value [2] was “only a decrease in cAMP level” and the Emax [1, 3] was 22 ± 2%. The “effect” value [1] was “inhibited cAMP production”, the τ ([1]; M5Gi (↓cAMP), Table 8) was 0.31 ± 0.04 and the RAi ([1]; M5Gi (↓cAMP)) was 0.021 ± 0.002. For the same compound, the “Δlog(τ/KA)” value ([1]; M5Gi (↓cAMP)) was 1.70 ± 0.21, the EC50 [1, 4] was 21.9 µM and the Kd [1, 5] was 31.6 µM. For the same compound, the “Gi over Gq+G15 bias” value [1] was “about 10 fold”.

For `C[N+]1(Cc2cccs2)CC=CCC1.[I-]` (stereo not shown) [Compound 7A, 1-methyl-1-[(thiophen-2-yl)methyl]-1,2,3,6-tetrahydropyridin-1-ium iodide], the “Emax of inhibition of cAMP synthesis” value [2] was “comparable to inhibition by carbachol”, the “forskolin-stimulated cAMP level” value [2] was “only a decrease in cAMP level” and the Emax [1, 3] was 34 ± 2%. For the same compound, the “effect” value [1] was “inhibited cAMP production”, the τ ([1]; M5Gi (↓cAMP), Table 8) was 0.59 ± 0.02 and the RAi ([1]; M5Gi (↓cAMP)) was 0.026 ± 0.003. The “Δlog(τ/KA)” value ([1]; M5Gi (↓cAMP)) was 1.67 ± 0.18, the EC50 [1, 4] was 31.6 µM and the Kd [1, 5] was 50.1 µM. For the same compound, the “Gi over Gq+G15 bias” value [1] was about 30 fold.
